Laboratory results published in US20100184809A1, “Heterocyclic FXR Binding Compounds” (PHENEX PHARMACEUTICALS AG, priority 2006, published 2010).
Converted amounts (≈) assume the structure as drawn.

Legend:
[1] = target: T1, human FXRalpha ligand binding domain (LBD) (Homo sapiens, UniProt Q96RI1); experiment: FRET activity assay (ligand mediated cofactor peptide interaction, LANCE); format: biochemical; conditions: GST-FXR-LBD / biotinylated SRC-1 peptide (676-700)
T1 construct: made in house; host or cells: E. coli BL21(DE3), vector pDEST15
T1 sequence (Q96RI1 187-472 isoform Q96RI1-2): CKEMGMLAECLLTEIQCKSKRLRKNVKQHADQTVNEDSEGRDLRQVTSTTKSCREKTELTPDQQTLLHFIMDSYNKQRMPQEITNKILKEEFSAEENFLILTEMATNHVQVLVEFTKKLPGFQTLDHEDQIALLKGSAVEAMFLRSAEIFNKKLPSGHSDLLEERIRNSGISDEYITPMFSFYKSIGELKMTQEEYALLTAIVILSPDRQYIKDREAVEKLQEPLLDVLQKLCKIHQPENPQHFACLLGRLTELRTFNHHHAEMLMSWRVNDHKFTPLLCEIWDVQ
Protocol: Determination of a ligand mediated cofactor peptide interaction to quantify ligand binding to the nuclear receptor Farnesoid X Receptor (FXR) was performed as follows:
Preparation of human farnesoid X receptor (FXR) alpha ligand binding domain: The human FXRalpha ligand binding domain (LBD) was expressed in E. coli strain BL21(DE3) as an N-terminally glutathione-[…] (GST) tagged fusion protein. The DNA encoding the FXR ligand binding domain was cloned into vector pDEST15 (Invitrogen). Expression was under control of an IPTG inducible T7 promoter. The amino acid boundaries of the ligand binding domain were amino acids 187-472 of Database entry NM_005123 (RefSeq). Expression and purification of the FXR-LBD: An overnight preculture of a transformed E. coli strain was diluted 1:20 in LB-Ampicillin medium and grown at 30° C. to an optical density of OD600=0.4-0.6. Gene expression was then induced by addition of 0.5 mM IPTG. Cells were incubated an additional 6 h at 30° C., 180 rpm. Cells were collected by centrifugation (7000×g, 7 min, room temperature). Per liter of original cell culture, cells were resuspended in 10 ml lysis buffer (50 mM Glucose, 50 mM Tris pH 7.9, 1 mM EDTA and 4 mg/ml lysozyme) and left on ice for 30 min. Cells were then subjected to sonication and cell debris removed via centrifugation (22000×g, 30 min, 4° C.). Per 10 ml of supernatant 0.5 ml prewashed Glutathione 4B sepharose slurry (Qiagen) was added and the suspension kept slowly rotating for 1 h at 4° C. Glutathione 4B sepharose beads were pelleted by centrifugation (2000 g, 15 sec, 4° C.) and washed twice in wash buffer (25 mM Tris, 50 mM KCl, 4 mM MgCl2 and 1M NaCl). The pellet was resuspended in 3 ml elution buffer per liter of original culture (elution buffer: 20 mM Tris, 60 mM KCl, 5 mM MgCl2 and 80 mM glutathione added immediately prior to use as powder). The suspension was left rotating for 15 min at 4° C., the beads pelleted and eluted again with half the volume of elution buffer than the first time. The eluates were pooled and dialysed overnight in 20 mM Hepes buffer (pH 7.5) containing 60 mM KCl, 5 mM MgCl2 as well as 1 mM dithiothreitol and 10% (v/v) glycerol. The protein was analysed by SDS-Page.
The method measures the ability of putative ligands to modulate the interaction between the purified bacterial expressed FXR ligand binding domain (LBD) and a synthetic biotinylated peptide based on residues 676-700 of SRC-1 (LCD2, 676-700). The sequence of the peptide used was B-[…]-COOH where the N-terminus was biotinylated (B). The ligand binding domain (LBD) of FXR was expressed as fusion protein with GST in BL-21 cells using the vector pDEST15. Cells were lysed by sonication, and the fusion proteins purified over glutathione sepharose (Pharmacia) according to the manufacturers instructions. For screening of compounds for their influence on the FXR-peptide interaction, the Perkin Elmer LANCE technology was applied. This method relies on the binding dependent energy transfer from a donor to an acceptor fluorophor attached to the binding partner of interest. For ease of handling and reduction of background from compound fluorescence LANCE technology makes use of generic fluorophore labels and time resolved detection Assays were done in a final volume of 2 5 μl in a 384 well plate, in a Tris-based buffer (20 mM Tris-HCl pH 7,5; 60 mM KCl, 5 mM MgCl2; 35 ng/μl BSA), containing 20-60 ng/well recombinantly expressed FXR-LBD fused to GST, 200-600 nM N-terminally biotinylated peptide, representing SRC1 aminoacids 676-700, 200 ng/well Streptavidin-xIAPC conjugate(Prozyme) and 6-10 ng/well Eu W1024 antiGST (Perkin Elmer). DMSO content of the samples was kept at 1%. After generation of the assay mix and diluting the potentially FXR modulating ligands, the assay was equilibrated for one hour in the dark at room temperature in FIA-plates black 384 well (Greiner). […]

[2] = Plasma protein binding assay (equilibrium dialysis); format: in vitro ADME; conditions: 37° C., extrapolated fraction unbound
Protocol: Equilibrium dialysis is used to determine the extent of binding of a compound to plasma proteins. A semi-permeable membrane separates a protein-containing compartment from a protein-free compartment. The system is allowed to equilibrate at 37° C. The test compound present in each compartment is quantified by LC-MS/MS. The extent of binding is reported as a fraction unbound (fu) value which is calculated as fu=1−(PC−PF)/PC. PC=Test compound concentration in protein-containing compartment. PF=Test compound concentration in protein-free compartment. In addition to using whole plasma, the plasma protein binding assay can be performed using two other ratios of plasma (10% or 50% plasma in buffer v/v). The following equations are used to convert from a fraction unbound at 10% or 50% to a fraction unbound at 100%: […]

[3] = Rat microsomal stability assay; format: in vitro ADME; conditions: liver microsomes, 37° C., NADPH, 45 minute, read-out: Rat liver microsome clearance
Protocol: Compound stability towards rat liver microsomes was determined as follows: The microsomes are incubated with the test compound at 37° C. in the presence of the co-factor, NADPH, which initiates the reaction. The reaction is terminated by the addition of methanol. Following centrifugation, the supernatant is analysed on the LC-MS/MS. The disappearance of test compound is monitored over a 45 minute time period. The In peak area ratio (compound peak area/internal standard peak area) is plotted against time and the gradient of the line determined. Finally, Intrinsic clearance CLint is computed by the following equations: elimination rate konstant (k)=−gradient; t1/2 (min)=0.693/k; V (μl/mg)=volume of incubation (μl)/protein in incubation (mg); CLint (μl/min/mg protein)=V*0.693/t1/2.

[4] = Aqueous solubility assay, Protocol A, nephelometry method; format: physicochemical; conditions: PBS with 5% DMSO, aqueous with cosolvent or surfactant or cyclodextrin, kinetic from dmso stock, PBS pH 7.4, 5% DMSO, 23° C., 24 hours, read-out: Aqueous solubility pH 7.4
Protocol: Aqueous solubility of compounds was determined by nephelometry or by the shake-flask method as follows:
Protocol A, nephelometry method:
Solubility of compounds was measured in PBS (pH 7.4), 5% DMSO at 23° C. Nepheloskan Ascent (Thermo Electron Corporation) nephelometer was used for measurement of light scattering. Tested compounds were dissolved in DMSO to 10 mM. Prior to measurement the compounds were further diluted with PBS in the wells to final compound concentrations of 100, 70, 50, 35, 25, 17, 12 and <10 μg/ml.
The plates were incubated at room temperature for 24 hours to reach equilibrium and the scattered light was measured. Assay validation: Aqueous solubility of acetylsalicylic acid was determined to validate the assay.
The following compounds of Table 2 exemplify such solubility with “−−” meaning solubility<2 μM, “+” meaning 2 μM solubility 100 μM and “++” meaning solubility

Caco-2 permeability = format: in vitro ADME; conditions: human, apical to basolateral
Protocol: Caco-2 cells are widely used as an in vitro model for predicting human drug absorption. The Caco-2 cell line is derived from a human colorectal carcinoma, and when cultured, the cells spontaneously differentiate into monolayers of polarised enterocytes. The cells are seeded on Transwell™ plates and form a confluent monolayer over 20 days prior to the experiment. On day 20, the test compound is added to the apical side of the membrane and the transport of the compound across the monolayer is monitored over a 2 hour time period. To study drug efflux, it is also necessary to investigate transport of the compound from the basolateral compartment to the apical compartment. The permeability coefficient (Papp) is calculated from the following equation: […]
Where dQ/dt is the rate of permeation of the drug across the cells, CO is the donor compartment concentration at time zero and A is the area of the cell monolayer.

| IC50 [1] | fraction unbound [2] | microsomal CLint [3] | melting point | solubility at 24 h [4] | Papp A→B at 2 h (Caco-2 permeability) | SMILES |
| --- | --- | --- | --- | --- | --- | --- |
| 1 to 10 µM | 0.0003 | 149 µL/min/mg | – | – | – | Cc1onc(-c2c(Cl)cccc2Cl)c1COc1ccc(NC(=O)c2cccc(C(=O)O)c2)cn1 [Example 15, 3-(6-((3-(2,6-dichlorophenyl)-5-methylisoxazol-4-yl)methoxy)pyridin-3-ylcarbamoyl)benzoic acid] |
| ≤ 1 µM | – | – | 127.8 to 128.8 °C | – | – | Cc1nc(OCc2c(C(C)C)nnn2-c2c(Cl)cccc2Cl)ccc1N(C)S(=O)(=O)c1ccc(C(=O)O)cc1 [Example 30, 4-(N-(6-((1-(2,6-dichlorophenyl)-4-isopropyl-1H-1,2,3-triazol-5-yl)methoxy)-2-methylpyridin-3-yl)-N-methylsulfamoyl)benzoic acid] |
| ≤ 1 µM | – | – | 153.8 to 154.8 °C | > 100 µM | – | CC(C)c1onc(-c2c(Cl)cccc2Cl)c1COc1ccc(NC(=O)c2cccc(C(=O)O)c2)c(C(F)(F)F)n1 [Example 21] |
| ≤ 1 µM | 0.003 | 57 µL/min/mg | 218 °C | – | – | Cc1cc(OCc2c(-c3c(Cl)cccc3Cl)noc2C(C)C)cnc1NC(=O)c1ccc(C(=O)O)cc1 [Example 19, N-(5-[3-(2,6-Dichloro-phenyl)-5-isopropyl-isoxazol-4-ylmethoxy]-3-methyl-pyridin-2-yl)-terephthalamic acid] |
| ≤ 1 µM | 0.0005 | – | – | > 100 µM | 34 ×10⁻⁶ cm/s | CC(C)c1onc(-c2c(Cl)cccc2Cl)c1COc1ccc(NC(=O)c2ccc(C(=O)O)cc2)c(C(F)(F)F)n1 [Example 6, N-{6-[3-(2,6-dichloro-phenyl)-5-isopropyl-isoxazol-4-ylmethoxy]-2-trifluoromethyl-pyridin-3-yl}-terephthalamic acid] |
| 1 to 10 µM | – | 55 µL/min/mg | – | – | – | Cc1cc(OCc2c(-c3c(Cl)cccc3Cl)noc2C(C)C)cnc1N(C)C(=O)c1ccc(C(=O)O)cc1 [Example 26, 4-((5-((3-(2,6-dichlorophenyl)-5-isopropylisoxazol-4-yl)methoxy)-3-methylpyridin-2-yl)(methyl)carbamoyl)benzoic acid] |
| ≤ 1 µM | – | – | 229 °C (dec.) | 2 to 100 µM (≈ 1.21 to 60.7 µg/mL) | – | CC(C)c1onc(-c2c(Cl)cccc2Cl)c1COc1ccc(N(C)C(=O)c2ccc(C(N)=O)cc2)c(C(F)(F)F)n1 [Example 23, N^1-(6-((3-(2,6-Dichlorophenyl)-5-isopropylisoxazol-4-yl)methoxy)-2-(trifluoromethyl)pyridin-3-yl)-N^1-methylterephthalamide] |
| ≤ 1 µM | 0.0009 | – | 166.8 to 167.8 °C | – | 46 ×10⁻⁶ cm/s | CC(C)c1onc(-c2c(Cl)cccc2Cl)c1COc1ccc(N(C)C(=O)c2ccc(C(=O)N(C)C)cc2)c(C(F)(F)F)n1 [Example 24] |
| – | 0.0001 | – | – | – | 0.6 ×10⁻⁶ cm/s | Cc1onc(-c2c(Cl)cccc2Cl)c1COc1ccc(NC(=O)c2cccc(C(=O)O)c2)cc1 [Compound C, reference compound] |
| ≤ 1 µM | – | – | 218 to 219 °C | – | – | CC(C)c1nnn(-c2c(Cl)cccc2Cl)c1COc1ccc(N(C)C(=O)c2ccc(C(=O)O)cc2)c(C(F)(F)F)n1 [Example 29, 4-((6-((1-(2,6-Dichlorophenyl)-4-isopropyl-1H-1,2,3-triazol-5-yl)methoxy)-2-(trifluoromethyl)pyridin-3-yl)(methyl)carbamoyl)benzoic acid] |
| ≤ 1 µM | – | – | 259.1 to 260.1 °C | – | – | CC(C)c1onc(-c2c(Cl)cccc2Cl)c1COc1ccc(NCc2ccc(C(=O)O)cc2)c(C(F)(F)F)n1 [Example 27, 4-((6-((3-(2,6-Dichlorophenyl)-5-isopropylisoxazol-4-yl)methoxy)-2-(trifluoromethyl)pyridin-3-ylamino)methyl)benzoic acid] |
| ≤ 1 µM | – | – | – | – | – | CC(C)c1onc(-c2c(Cl)cccc2Cl)c1COc1ccc(N(C)S(=O)(=O)c2ccc(C(=O)O)cc2)c(C(F)(F)F)n1 [Example 9, 4({6-[3-(2,6-Dichloro-phenyl)-5-isopropyl-isoxazol-4-ylmethoxy]-2-trifluoromethyl-pyridin-3-yl}-methyl-sulfamoyl)-benzoic acid] |
